{"source": "patent US20240041870A1", "about": "“METHODS OF TREATING SYSTEMIC LUPUS ERYTHEMATOSUS” (AbbVie Inc., priority 2022, published 2024)", "test_system": "subjects with moderately to severely active SLE", "assay": "Phase 2 Study M19-130: safety and efficacy of upadacitinib vs placebo, 48-week treatment period", "format": "in vivo, human", "text": "This was a Phase 2 Study (M19-130) to Investigate the Safety and Efficacy of Upadacitinib Given in Subjects with Moderately to Severely Active Systemic Lupus Erythematosus.\nSubjects must have had active SLE by SLEDAI-2K ≥6 as reported and independently adjudicated (clinical score ≥4, excluding lupus headache and/or organic brain syndrome) at Screening and Baseline. If 4 points of the required entry points were for arthritis, there must also have been a minimum of 3 tender and 3 swollen joints.\nThe primary efficacy endpoint was achievement of SLE Responder Index (SRI)-4 and steroid dose ≤10 mg prednisone equivalent once a day (QD) at Week 24. SLE Responder Index (SRI)-4 is defined as ≥4-point reduction in Systemic Lupus Erythematosus Disease Activity Index 2000 (SLEDAI-2K) score without worsening of the overall condition (no worsening in Physician's Global Assessment [PhGA], <0.3 point increase) or the development of significant disease activity in new organ systems (no new British Isles Lupus Assessment Group ([BILAG]) A or >1 new BILAG B).\nThe following secondary efficacy endpoints were evaluated: • 1. Achievement of SRI-4 at Week 24 • 2. Achievement of BILAG-Based Combined Lupus Assessment (BICLA) response at Week 24 • 3. Achievement of Lupus Low Disease Activity State (LLDAS) at Week 24 • 4. Steroid burden, assessed as change from Baseline at Week 24 • 5. Number of mild, moderate, or severe flares per patient-year (respectively and overall) by Safety of Estrogens in Lupus Erythematosus National Assessment (SELENA) SLEDAI Flare Index (SFI), assessed by number and types of flare per subject through Week 24\nThe following additional efficacy endpoints were evaluated at all visits unless otherwise noted: • 1. Achievement of SRI-4 • 2. Achievement of SRI-5, -6, -7, -8 and steroid dose ≤10 mg prednisone equivalent QD at Weeks 24 and 48 • 3. Achievement of SRI-5, -6, -7, -8 • 4. Achievement of BICLA response • 5. Achievement of LLDAS • 6. Achievement of ≥4-point decrease in SLEDAI-2K from Baseline • 7. Steroid burden, assessed as change from Baseline • 8. Number of mild, moderate, or severe flares per patient-year (respectively and overall) by SELENA SFI, assessed by number and types of flare per subject through Week 24 and Week 48 • 9. Time to first flare by SELENA SFI after first study drug administration up to Week 24 and Week 48 • 10. Achievement of 50% reduction of tender or swollen lupus joints defined as ≥50% decrease in either tender or swollen joints (of those starting with total ≥6 affected joints) • 11. Achievement of 50% reduction in Cutaneous Lupus Erythematosus Disease Area and Severity Index (CLASI) activity score (of those starting with CLASI ≥10) • 12. Change in SLEDAI-2K from Baseline • 13. Change in BILAG from Baseline • 14. Change in PhGA from Baseline • 15. Change in Patient Global Assessment (PtGA) from Baseline • 16. Change from Baseline in Functional Assessment of Chronic Illness Therapy (FACIT)—Fatigue at Weeks 2, 12, 24, and 48 • 17. Change from Baseline in 36-Item Short Form Health Survey (SF-36) at Weeks 2, 12, 24, and 48 • 18. Change from Baseline Lupus Quality of Life questionnaire (LupusQoL) at Weeks 2, 12, 24, and 48 • 19. Change from Baseline Pain Numerical Rating Scale (NRS) at Weeks 2, 12, 24, and 48\nThe study was designed to investigate the safety and efficacy of upadacitinib in subjects with moderately to severely active SLE despite standard of care therapy. The study duration included a 42-day maximum screening period, a 48-week randomized, placebo-controlled, double-blind, parallel-group treatment period, and a 30-day follow-up phone call. The Week 24 Primary Analysis was performed when all subjects completed the Week 24 visit or discontinued the study. Sites and subjects remained blinded throughout the study. The study team remained blinded until the Week 24 Primary Analysis. […]", "key": {"[1]": {"conditions": "30 mg QD oral, N = 62, Week 24 interim analysis (Example 1)"}, "[2]": {"conditions": "30 mg QD oral, N = 62, Week 24 interim analysis (Example 1), listed as UPA"}, "[3]": {"conditions": "30 mg QD oral, N = 62, final database (Example 2)"}, "[4]": {"conditions": "30 mg QD oral, N = 62, full analysis set, Week 24 interim analysis (Example 1)"}, "[5]": {"conditions": "30 mg QD oral, final database (Example 2)"}, "[6]": {"conditions": "30 mg QD vs PBO (N = 75), stratum-adjusted, final database (Example 2)"}, "[7]": {"conditions": "30 mg QD, N = 62, subject disposition, Week 24 interim analysis"}}, "data": [{"molecule": "CC[C@@H]1CN(C(=O)NCC(F)(F)F)C[C@@H]1c1cnc2cnc3[nH]ccc3n12", "note": "[Upadacitinib, (3S,4R)-3-ethyl-4-(3H-imidazo[1,2-a]pyrrolo[2,3-e]pyrazin-8-yl)-N-(2,2,2-trifluoroethyl)pyrrolidine-1-carboxamide]", "values": [{"measurement": "Prednisone Equivalent Steroid Dose; Week 48; LS Mean Change (SE)", "setting": "30 mg QD oral, N = 38, final database (Example 2)", "value": "−1.20 (0.524)"}, {"measurement": "Prednisone Equivalent Steroid Dose at Week 24; LS Mean Change (SE)", "setting": "30 mg QD oral, N = 48, change from Baseline, Week 24 interim analysis (Example 1)", "value": "−0.64 (0.486)"}, {"measurement": "Prednisone Equivalent Steroid Dose; Week 24; LS Mean Change (SE)", "setting": "30 mg QD oral, N = 48, final database (Example 2)", "value": "−0.62 (0.496)"}, {"measurement": "BICLA at Week 24; %", "setting": "[1]", "value": 58.1, "unit": "%"}, {"measurement": "BICLA at Week 24; n", "setting": "[1]", "value": 36, "unit": "n"}, {"measurement": "Flares per SELENA SLEDAI Flare Index through Week 24; Any flares", "setting": "[1]", "value": 1.73, "unit": "Events/PY"}, {"measurement": "Flares per SELENA SLEDAI Flare Index through Week 24; Mild/Moderate", "setting": "[1]", "value": 1.66, "unit": "Events/PY"}, {"measurement": "Flares per SELENA SLEDAI Flare Index through Week 24; Severe", "setting": "[1]", "value": 0.07, "unit": "Events/PY"}, {"measurement": "LLDAS at Week 24; %", "setting": "[1]", "value": "(43.5) %"}, {"measurement": "LLDAS at Week 24; n", "setting": "[1]", "value": 27, "unit": "n"}, {"measurement": "SRI-4 at Week 24; %", "setting": "[1]", "value": 53.6, "unit": "%"}, {"measurement": "SRI-4 at Week 24; n", "setting": "[1]", "value": 33, "unit": "n"}, {"measurement": "BICLA at Week 24; %", "setting": "[2]", "value": "(58.1) %"}, {"measurement": "SRI-4 at Week 24; %", "setting": "[2]", "value": "(53.2) %"}, {"measurement": "BICLA; Week 24; %", "setting": "[3]", "value": "(58.1) %"}, {"measurement": "BICLA; Week 24; n", "setting": "[3]", "value": 36, "unit": "n"}, {"measurement": "BICLA; Week 48; %", "setting": "[3]", "value": "(53.2) %"}, {"measurement": "BICLA; Week 48; n", "setting": "[3]", "value": 33, "unit": "n"}, {"measurement": "Flares per SELENA SLEDAI Flare Index Through Week 48; Any flares", "setting": "[3]", "value": 2.04, "unit": "Events/PY"}, {"measurement": "Flares per SELENA SLEDAI Flare Index Through Week 48; Mild/Moderate", "setting": "[3]", "value": 1.88, "unit": "Events/PY"}, {"measurement": "Flares per SELENA SLEDAI Flare Index Through Week 48; Severe", "setting": "[3]", "value": 0.16, "unit": "Events/PY"}, {"measurement": "Flares per SELENA SLEDAI Flare Index through Week 24; Any flares", "setting": "[3]", "value": 1.87, "unit": "Events/PY"}, {"measurement": "Flares per SELENA SLEDAI Flare Index through Week 24; Mild/Moderate", "setting": "[3]", "value": 1.76, "unit": "Events/PY"}, {"measurement": "Flares per SELENA SLEDAI Flare Index through Week 24; Severe", "setting": "[3]", "value": 0.10, "unit": "Events/PY"}, {"measurement": "LLDAS; Week 24; %", "setting": "[3]", "value": "(45.2) %"}, {"measurement": "LLDAS; Week 24; n", "setting": "[3]", "value": 28, "unit": "n"}, {"measurement": "LLDAS; Week 48; %", "setting": "[3]", "value": "(50.0) %"}, {"measurement": "LLDAS; Week 48; n", "setting": "[3]", "value": 31, "unit": "n"}, {"measurement": "SRI-4; Week 24; %", "setting": "[3]", "value": "(56.5) %"}, {"measurement": "SRI-4; Week 24; n", "setting": "[3]", "value": 35, "unit": "n"}, {"measurement": "SRI-4; Week 48; %", "setting": "[3]", "value": 45.2, "unit": "%"}, {"measurement": "SRI-4; Week 48; n", "setting": "[3]", "value": 28, "unit": "n"}, {"measurement": "SRI-4 and Prednisone Equivalent Steroid Dose ≤10 mg; Week 24; %", "setting": "[3]", "value": "(54.8) %"}, {"measurement": "SRI-4 and Prednisone Equivalent Steroid Dose ≤10 mg; Week 48; %", "setting": "[3]", "value": "(43.5) %"}, {"measurement": "SRI-4 and Prednisone Equivalent Steroid Dose ≤10 mg; Week 48; n", "setting": "[3]", "value": 27, "unit": "n"}, {"measurement": "SRI-4; Week 48; %", "setting": "30 mg QD oral, N = 62, final database (Example 2), listed as UPA", "value": "(45.2) %"}, {"measurement": "SRI-4 and Prednisone Equivalent Steroid Dose ≤10 mg at Week 24; %", "setting": "[4]", "value": 51.6, "unit": "%"}, {"measurement": "SRI-4 and Prednisone Equivalent Steroid Dose ≤10 mg at Week 24; n", "setting": "[4]", "value": 32, "unit": "n"}, {"measurement": "SRI-4 and Prednisone Equivalent Steroid Dose ≤10 mg at Week 24; %", "setting": "30 mg QD oral, N = 62, full analysis set, Week 24 interim analysis (Example 1), listed as UPA", "value": "(51.6) %"}, {"measurement": "SRI-4 and Prednisone Equivalent Steroid Dose ≤10 mg; Week 24; n", "setting": "30 mg QD oral, N = 62, full analysis set, final database (Example 2)", "value": 34, "unit": "n"}, {"measurement": "50% Reduction of Tender or Swollen Lupus Joints among Subjects with Total >=6 Affected Joints; Week 24; %", "setting": "[5]", "value": "(67.8) %"}, {"measurement": "50% Reduction of Tender or Swollen Lupus Joints among Subjects with Total >=6 Affected Joints; Week 24; n", "setting": "[5]", "value": "40/59"}, {"measurement": "50% Reduction of Tender or Swollen Lupus Joints among Subjects with Total >=6 Affected Joints; Week 48; %", "setting": "[5]", "value": "(57.6) %"}, {"measurement": "50% Reduction of Tender or Swollen Lupus Joints among Subjects with Total >=6 Affected Joints; Week 48; n", "setting": "[5]", "value": "34/59"}, {"measurement": "BICLA; Week 48; Adj. Diff (−PBO) [95% CI]", "setting": "[6]", "value": 30.8}, {"measurement": "SRI-4; Week 48; Adj. Diff (−PBO) [95% CI]", "setting": "[6]", "value": 30.4}, {"measurement": "SRI-4 and Steroid Dose ≤10 mg prednisone equivalent QD; stratum-adjusted treatment difference", "setting": "30 mg QD vs placebo, Week 24, Example 1", "value": 14.0, "unit": "%"}, {"measurement": "Discontinued from the Study Drug (All Reasons): Adverse event; %", "setting": "[7]", "value": 9.7, "unit": "%"}, {"measurement": "Discontinued from the Study Drug (All Reasons): Adverse event; n", "setting": "[7]", "value": 6, "unit": "n"}, {"measurement": "Discontinued from the Study Drug (Primary Reasons): Adverse event; %", "setting": "[7]", "value": 8.1, "unit": "%"}, {"measurement": "Discontinued from the Study Drug (Primary Reasons): Adverse event; n", "setting": "[7]", "value": 5, "unit": "n"}, {"measurement": "Withdrawal from the Study (All Reasons): Adverse event; %", "setting": "[7]", "value": 6.5, "unit": "%"}, {"measurement": "Withdrawal from the Study (All Reasons): Adverse event; n", "setting": "[7]", "value": 4, "unit": "n"}, {"measurement": "Withdrawal from the Study (Primary Reasons): Adverse event; %", "setting": "[7]", "value": 4.8, "unit": "%"}, {"measurement": "Withdrawal from the Study (Primary Reasons): Adverse event; n", "setting": "[7]", "value": 3, "unit": "n"}, {"measurement": "response rate in BICLA after Week 24", "setting": "30 mg, Week 24 to Week 48", "value": "generally maintained"}, {"measurement": "response rate in SRI-4 after Week 24", "setting": "30 mg, Week 24 to Week 48", "value": "generally maintained"}, {"measurement": "flare compared to placebo", "setting": "30 mg, over 48 weeks", "value": "reductions in flare"}, {"measurement": "time-to-first flare compared to placebo", "setting": "30 mg, over 48 weeks", "value": "delays in time-to-first flare"}, {"measurement": "LLDAS at Week 24 compared with placebo", "setting": "30 mg, p<0.001, Example 1", "value": "greater efficacy than placebo"}, {"measurement": "flare rate through Week 24 compared with placebo", "setting": "30 mg, p=0.075, Example 1", "value": "lower flare rate"}, {"measurement": "response rate for achievement of BICLA at Week 48", "setting": "30 mg, text of Example 2", "value": 53.2, "unit": "%"}]}]}
